# Reference: patent publication US11713293B2, “Substituted biaryl sulfonamides and the use thereof” (NovoMedix, LLC, priority 2012, dated 2023)
# Read-outs that look alike come from different tables or passages of the source.
# How the values were obtained:
# [1] = tested on: purified luciferase protein; assay: Inhibition of purified luciferase protein (specificity control); format: biochemical; details: at 100 μM
# [2] = PK study and oral bioavailability, mouse; format: in vivo; details: plasma 0 to 6 h
# [3] = Plasma and tumor concentrations at sacrifice in MDA-MB-231 xenograft mice; format: in vivo, Mouse/nude
# Experimental: At study termination, mice still undergoing treatment were given a final dose of compound and sacrificed 2 h later. Average concentrations of compounds in plasma and tumor were determined.
# MDA-MB-231 breast tumors = assay: Tumor growth inhibition in MDA-MB-231 xenograft model for breast cancer; format: in vivo, Mouse/nude
# Experimental: In one embodiment, the effects of a compound provided herein on tumor growth in a mouse animal model were evaluated. In specific embodiments, the mouse animal model was the MDA-MB-231 xenograft model for breast cancer. Studies were performed to evaluate the effect of a compound provided herein on the growth of MDA-MB-231 breast tumors in mice. The test system that was used is summarized below:
# Animals were housed 10 mice per cage in micro-isolators, with sterile corn cob bedding, food, and water. Mice were acclimated for 3 days and given food and tap water ad libitum. Animals were examined prior to initiation of the study to assure adequate health and suitability. […] During the course of the study, 12-hour light/12-hour dark cycle were maintained. A nominal temperature range of 20-23° C. with a relative humidity between 30% and 70% was maintained. LabDiet 5053-certified PicoLab Rodent Diet and sterile water were provided ad libitum during the study.
# Exemplary Protocol: Ten mice per group were inoculated s.c. on the left flank with 5×10^6 MDA-MB-231 cells. When tumors reached a mean volume of approximately 100 mm^3, animals began treatment with a compound provided herein (See Table 5). […] Tumors were evaluated every Monday, Wednesday and Friday, body weights and condition were evaluated on a daily basis. […]
# Tumor Measurement: Tumors were monitored daily. If, during a daily evaluation, an animal's tumor appeared to have exceeded 1500 mm^3, the tumor was measured; and animals with tumors greater than 1500 mm^3 and/or that had become necrotic and/or hindered movement were euthanized. Tumors were measured twice weekly by measuring each tumor in 2 dimensions, along the largest dimension (length, L) and perpendicular to this dimension (width, W). Tumor weights were calculated using the standard formula: (L×W^2)/2. The mean tumor weight and standard error of the mean were calculated for each group at each time point. […]
# Animal Weight: All animals were weighed twice weekly throughout the study. Group weight change was expressed as a daily group mean weight. […]
# [4] = tested on: highly structured 5′-UTR HB3 (triple stem loop) reporter; assay: Translation of mRNAs with highly structured 5′-UTR versus unstructured
# Experimental: Many proteins that drive cancer growth and survival (including the cyclins, c-myc, and Pim-1) have secondary structures in the 5′-UTR of their mRNA that limit the rate of translational initiation. In one embodiment, the effects of a compound provided herein on translation of such mRNAs relative to mRNAs without highly structured 5′-UTRs were evaluated.
# [5] = tested on: triple negative breast cancer cell line 4T1; assay: Cell-based IC50 assay, adherent cells, 4T1; details: 72 hours, CellTiter 96 Aqueous One
# Experimental: (§1) In one embodiment, the IC50s of the compounds provided herein were determined in cell-based assays using adherent cells. In one embodiment, the activity of the compounds provided herein were determined in a cell-based assay using the triple negative breast cancer cell line MDA-MB-468. In one embodiment, the activity of the compounds provided herein were determined in a cell-based assay using the triple negative breast cancer cell line MDA-MB-231. In one embodiment, the activity of the compounds provided herein were determined in a cell-based assay using the triple negative breast cancer cell line 4T1.
# In one embodiment, the cell-based assay may be carried out as provided herein. On day 0, cells were seeded at 20,000 cells per well in 100 μL of media into individual wells of a 96-well tissue culture plate. The next day, compounds were diluted to twice the desired final concentration and added in 100 μL of media for a final volume of 200 μL. Standard solutions for each compound were prepared at 1000× concentration in DMSO. The highest concentration was 30 mM. […] Cells were placed back in the incubator, and the absorbance at 490 nm was read after 2-3 hours. […] “Percent Viability” was determined by subtracting the average background value (media only) and expressed as a ratio to the average value obtained from cells treated with only DMSO.
# cyclin D3 = assay: Cyclin D3 levels by Western blot in MDA-MB-231 cells; format: cell-based; details: 10 μM, at 18 and 24 h
# Experimental: Cyclin D is one of the most commonly overexpressed genes in breast cancer and high levels correlate with poor prognosis. Furthermore, cyclin D overexpression is correlated with triple-negative basal-like tumors. In one embodiment, the effects of a compound provided herein on cyclin D overexpression were evaluated. […] The density ratio of the cyclin D3 band to respective beta-actin band was determined by Western blot analysis and normalized to DMSO (100%).
# [6] = tested on: triple negative breast cancer cell line MDA-MB-231; assay: Cell-based IC50 assay, adherent cells, MDA-MB-231; details: Homo sapiens, 72 hours, CellTiter 96 Aqueous One
# Experimental: as §1
# (§2) In one embodiment, the cell-based assay may be carried out as provided herein. On day 0, cells were seeded at 20,000 cells per well in 100 μL of media into individual wells of a 96-well tissue culture plate. The next day, compounds were diluted to twice the desired final concentration and added in 100 μL of media for a final volume of 200 μL. Standard solutions for each compound were prepared at 1000× concentration in DMSO. The highest concentration was […]. Serial 1:1 dilutions were made from there for a 6- or 9-point curve (e.g., 20 mM, 10 mM, 5 mM, etc). Compounds were then diluted 1:500 in media, and 100 μL of the resulting solution was added to each well for a final dilution of 1:1000. Each concentration of compound was tested in triplicate. Cells were incubated at 37° C. with 5% CO2. After 72 hours, 20 μL of CellTiter 96 Aqueous One Solution Cell Proliferation Assay (Promega) was added to each well. Cells were placed back in the incubator, and the absorbance at 490 nm was read after 2-3 hours. The concentration of compound that decreased the number of metabolically active cells by 50% was determined and reported as the IC50. “Percent Viability” was determined by subtracting the average background value (media only) and expressed as a ratio to the average value obtained from cells treated with only DMSO.
# [7] = tested on: m7GpppN-capped luciferase mRNA reporter; assay: In vitro HeLa cell extract translation system, translation inhibition; format: biochemical; details: at 10 μM
# Experimental: In one embodiment, the compounds provided herein were assayed for translation inhibition activity using an in vitro HeLa cell extract translation system with an m7GpppN-capped luciferase mRNA reporter.
# [8] = tested on: triple negative breast cancer cell line MDA-MB-468; assay: Cell-based IC50 assay, adherent cells, MDA-MB-468; details: Homo sapiens, 72 hours, CellTiter 96 Aqueous One, metabolically active cells decreased by 50%
# Experimental: as §1, §2
# The IC50s of the compounds provided herein and some reference compounds were determined in cell-based assay using triple negative breast cancer cell line MDA-MB-468.
smiles,measurement,setting,value
"CC(C)c1cc(C(C)C)c(S(=O)(=O)Nc2cc(C(F)(F)F)cc(C(F)(F)F)c2)c(C(C)C)c1 [Compound 1, N-[3,5-Bis(trifluoromethyl)phenyl]-2,4,6-triisopropyl-benzenesulfonamide]",inhibition of purified luciferase protein,[1],no inhibition
same,C0,"[2]; IV 5 mg/kg, read-out: IV Administration (5 mg/kg) C0",54600 ng/mL
same,half-life,"[2]; IV 5 mg/kg, read-out: IV Administration (5 mg/kg) T½ (converted)",2.1 h
same,C0,"[2]; PO 25 mg/kg, read-out: PO Administration (25 mg/kg) C0",5150 ng/mL
same,half-life,"[2]; PO 25 mg/kg, read-out: PO Administration (25 mg/kg) T½ (converted)",1.5 h
same,levels in plasma and tumor samples after discontinued treatment,"[3]; mice that discontinued treatment on Day 31, at study termination",detectable levels
same,concentration at 14 days,"[3]; nude, mouse, plasma, intraperitoneal, treated until the end: No, none after day 31, sacrificed day 45, read-out: Ave. Plasma Conc.",50 ± 20 nM
same,concentration at 2 h,"[3]; nude, mouse, plasma, intraperitoneal, treated until the end: Yes, 50/25 mg/kg, sacrificed day 45, 2 h after final dose, read-out: Ave. Plasma Conc.",2330 ± 270 nM
same,Ave. Tumor Conc.,"[3]; treated until the end: No, none after day 31, sacrificed day 45",0.07 ± 0.04 μM/g of tumor tissue
same,Ave. Tumor Conc.,"[3]; treated until the end: Yes, 50/25 mg/kg, sacrificed day 45, 2 h after final dose",1.25 ± 0.09 μM/g of tumor tissue
same,mean tumor volume at Day 31,"MDA-MB-231 breast tumors; qd IP 50 mg/kg, reduced to 25 mg/kg on day 7, vehicle group 898±260 mm^3",276±119 mm^3
same,mean weight gain,"MDA-MB-231 breast tumors; qd IP 50/25 mg/kg, Days 1 to 31, vehicle group 4.2%",0.1%
same,tumor growth after drug withdrawal,"MDA-MB-231 breast tumors; within 10 days of withdrawal, from day 32",tumor growth did not resume
same,inhibition of highly structured 5′-UTR reporter relative to mRNAs without highly structured 5′-UTRs,[4],preferential inhibition
same,IC50,[5],15 µM
same,"cyclin D3 levels (density ratio to beta-actin, normalized to DMSO)",cyclin D3,decrease in cyclin D3 levels
same,IC50,[6],13 µM
same,inhibition of luciferase activity vs. DMSO,[7],97.4%
same,IC50,[8],5 µM
